# Patent publication US20110319392A1, “Thiazole Sulfonamide And Oxazole Sulfonamide Kinase Inhibitors” (priority 2009, published 2011)
# Counter-ions that a name gives are not always drawn.
# How the values were obtained:
# [1] = system: HN5 tumor cells; assay: Cell growth inhibition assay (CellTiter-Glo), HN5; assay type: cell-based, Human; details: Homo sapiens, 72 h; 3 days incubation
# Protocol: Human breast tumor cells (BT474) were cultured in RPMI (Mediatech […]), containing 10% FBS (JRH Biosciences 12176) and 1% penicillin-streptomycin (Invitrogen 15140). Human head and neck tumor cells (HN5) were cultured in high glucose DMEM (Mediatech 50-013-PB) containing 10% FBS and 1% penicillin-streptomycin. Human colon tumor cells (Colo205) were cultured in RPMI (Mediatech 50-020-PB) containing 10% FBS and 1% penicillin-streptomycin. Human melanoma cancer cells (SK-MEL-28) were cultured in EMEM with nonessential amino acids (Mediatech 50-011-PB) containing 10% FBS, 1% sodium pyruvate (JT Baker 3354-04), and 1% penicillin-streptomycin. Human melanoma cancer cells (A375P F11s) were cultured in RPMI (Mediatech 50-020-PB) containing 10% FBS, 1% sodium pyruvate, and 1% penicillin-streptomycin. Human colon cancer cells (HT-29) were cultured in high glucose DMEM (Mediatech 50-013-PB) containing 10% FBS and 1% penicillin-streptomycin. Human melanoma cancer cells (SK-MEL-3) were cultured in McCoy's 5A (50-025-PB) containing 15% FBS, and 1% penicillin-streptomycin. All cell lines were maintained at 37° C. in a humidified 5% CO2, 95% air incubator. Cells were harvested using trypsin/EDTA (Invitrogen 25200), counted using a haemocytometer, and plated. For 96-well assays (using white full-area NUNC plates cat. #136102), cells were plated in 105 μL at the following densities (cells/well): HNS, 500; Colo 205, 500; SK-MEL-28, 500; A375P F11s, 500; HT-29, 500; SK-MEL-3, 500; and BT474, 3000. For 384-well assays (white full-area NUNC plates, cat. #781080), cells were plated in 48 μL at the following densities (cells/well): HNS, 500; Colo205, 500; SK-MEL-28, 500; A375P F11s, 500; HT-29, 500; SK-MEL-3, 500; and BT474, 2000.
# The next day, compounds were diluted as follow: For 96-well assays, 13.5 μL of compound in DMSO were diluted using nine (9) serial 1:3 dilutions of 4.5 μL in 9 of DMSO. Medium (270 μL/well of RPMI with 10% FBS and 1% penicillin-streptomycin) was added to the plates. Aliquots (7 μL) were added to cells in the final assay giving a final DMSO concentration of 0.2%. For 384-well assays, 15 μL of compound in DMSO were diluted using nine (9) serial 1:3 dilutions of 5 μL in 10 μL of DMSO, followed by a further dilution of 5 μL of compound with 95 μL of medium, of which 2 μL were added to cells in the final assay giving a final DMSO concentration of 0.2%. Cells were incubated at 37° C., 5% CO2 for 3 days.
# Total ATP was measured (as a surrogate estimate of cell number) using CellTiter-Glo® reagent (Promega G7571). Briefly, plates were removed from the incubator and allowed to equilibrate to room temperature for 30 minutes. CellTiter-Glo® (25 μL or 55 μL for 384-well or 96-well assays, respectively) reagent was added to each well and plates were shaken on an orbital plate shaker for 2 minutes. Plates were incubated without shaking for a further 30 minutes and read on an LJL Analyst GT reader in luminometer mode with an integration time of 0.5 seconds per well. Percent inhibition of cell growth was calculated relative to DMSO vehicle-treated control wells. Concentration of compound required to give 50% inhibition of vehicle-treated control cell growth (IC50) was interpolated using a 4-parameter fit for determining IC50 using the following equation: Y=A +((B−A)/(1+((C/X)̂D))) where […].
# [2] = system: Colo205 tumor cells; assay: Cell growth inhibition assay (CellTiter-Glo), Colo205; assay type: cell-based, Human; details: Homo sapiens, COLO 205, 72 h; 3 days incubation
# Outline: (§1)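 Readout was CellTiter-Glo luminescence (total ATP, surrogate for cell number) after 3-day exposure at 37° C, 5% CO2 to 1:3 serial compound dilutions in 0.2% final DMSO. Seeding was 500 cells/well; IC50 derived by 4-parameter fit relative to vehicle-treated wells.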
# [3] = system: SK-MEL-28 tumor cells; assay: Cell growth inhibition assay (CellTiter-Glo), SK-MEL-28; assay type: cell-based, Human; details: Homo sapiens, SK-MEL-28, 72 h; 3 days incubation
# Outline: as §1
# [4] = biological target: T1, EGFR (Homo sapiens, UniProt P00533); assay: EGFR substrate phosphorylation assay (HTRF); assay type: biochemical
# T1 construct: made in house; host or cells: baculovirus expression system
# T1 sequence (P00533 25-1210): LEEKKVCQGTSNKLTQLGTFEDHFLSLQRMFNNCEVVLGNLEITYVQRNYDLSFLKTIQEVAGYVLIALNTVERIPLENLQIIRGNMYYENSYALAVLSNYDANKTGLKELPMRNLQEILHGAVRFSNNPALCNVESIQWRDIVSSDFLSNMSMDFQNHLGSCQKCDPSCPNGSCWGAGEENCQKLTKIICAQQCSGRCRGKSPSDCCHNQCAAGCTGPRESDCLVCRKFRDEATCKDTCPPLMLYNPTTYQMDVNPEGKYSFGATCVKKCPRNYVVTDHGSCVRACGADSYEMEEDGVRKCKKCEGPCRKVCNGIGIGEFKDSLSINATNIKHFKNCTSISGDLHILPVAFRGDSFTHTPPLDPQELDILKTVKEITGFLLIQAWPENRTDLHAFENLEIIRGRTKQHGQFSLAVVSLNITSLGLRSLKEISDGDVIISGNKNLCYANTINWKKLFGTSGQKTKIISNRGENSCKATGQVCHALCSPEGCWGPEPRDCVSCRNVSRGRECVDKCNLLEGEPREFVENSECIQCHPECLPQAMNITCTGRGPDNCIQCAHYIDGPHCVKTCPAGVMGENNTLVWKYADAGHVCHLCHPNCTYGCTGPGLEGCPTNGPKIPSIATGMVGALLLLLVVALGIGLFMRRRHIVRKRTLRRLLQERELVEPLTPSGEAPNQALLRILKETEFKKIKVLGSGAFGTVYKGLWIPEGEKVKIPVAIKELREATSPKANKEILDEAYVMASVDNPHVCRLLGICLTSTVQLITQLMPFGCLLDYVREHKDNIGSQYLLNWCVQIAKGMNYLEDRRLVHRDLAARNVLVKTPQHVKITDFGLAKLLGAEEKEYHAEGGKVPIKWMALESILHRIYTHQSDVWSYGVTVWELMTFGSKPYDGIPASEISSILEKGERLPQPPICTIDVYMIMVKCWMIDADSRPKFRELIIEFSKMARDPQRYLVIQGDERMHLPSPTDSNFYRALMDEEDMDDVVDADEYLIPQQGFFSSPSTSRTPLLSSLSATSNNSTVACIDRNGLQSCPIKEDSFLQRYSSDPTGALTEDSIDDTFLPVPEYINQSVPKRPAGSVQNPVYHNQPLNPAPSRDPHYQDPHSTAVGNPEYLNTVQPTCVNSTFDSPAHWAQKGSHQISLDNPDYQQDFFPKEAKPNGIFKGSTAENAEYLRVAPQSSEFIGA
# Outline: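 Baculovirus-expressed EGFR (0.8 nM) or ErbB2 (10 nM) in enzyme mix, preincubated 1 h at 20 °C with compound (0.00027–47.6 μM final), then 90 min at 20 °C with substrate mix of 20 μM ATP, 0.8 uM biotinylated Peptide C, MnCl2, MOPS pH 7.5. Phosphotyrosine by HTRF; pIC50 reported.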
SMILES,IC50 [1],IC50 [2],IC50 [3],IC50 [4]
"CC(C)c1nc(-c2cccc(NS(=O)(=O)c3c(F)cccc3F)c2)c(-c2ccnc(Nc3ccc(OC4CCN(CCS(C)(=O)=O)CC4)c(F)c3)n2)s1 [Example 13, 2,6-Difluoro-N-{3-[5-(2-{[3-fluoro-4-({1-[2-(methylsulfonyl)ethyl]-4-piperidinyl}oxy)phenyl]amino}-4-pyrimidinyl)-2-(1-methylethyl)-1,3-thiazol-4-yl]phenyl}benzenesulfonamide hydrochloride]",100 to 1000 nM,< 100 nM,< 100 nM,100 to 1000 nM
O=S(=O)(Nc1cc(-c2nc(N3CCCC3)oc2-c2ccnc(Nc3ccc(N4CCN(CCF)CC4)c(F)c3)n2)ccc1F)c1c(F)cccc1F [Example 114],> 1000 nM,100 to 1000 nM,100 to 1000 nM,> 1000 nM
"CC(C)(C)c1nc(-c2ccc(F)c(NS(=O)(=O)c3c(F)cccc3F)c2)c(-c2ccnc(Nc3ccc(N4CCOCC4)nc3)n2)s1 [Example 28, N-{5-[2-(1,1-Dimethylethyl)-5-(2-{[[6-(4-morpholinyl)-3-pyridinyl]amino}-4-pyrimidinyl)-1,3-thiazol-4-yl]-2-fluorophenyl]-2,6-difluorobenzenesulfonamide hydrochloride]",> 1000 nM,< 100 nM,< 100 nM,> 1000 nM
CC(C)c1nc(-c2cccc(NS(=O)(=O)c3c(F)cccc3F)c2)c(-c2ccnc(Nc3ccc(N4CCOCC4)c(F)c3)n2)o1 [Example 57],100 to 1000 nM,< 100 nM,< 100 nM,100 to 1000 nM
"CC(C)c1nc(-c2cccc(NS(=O)(=O)c3c(F)cccc3F)c2F)c(-c2ccnc(Nc3ccc(N4CCN(CCF)CC4)c(F)c3)n2)s1 [Example 29, 2,6-Difluoro-N-{2-fluoro-3-[5-[2-({3-fluoro-4-[4-(2-fluoroethyl)-1-piperazinyl]phenyl}amino)-4-pyrimidinyl]-2-(1-methylethyl)-1,3-thiazol-4-yl]phenyl}benzenesulfonamide]",100 to 1000 nM,< 100 nM,< 100 nM,> 1000 nM
CC(C)c1nc(-c2cncc(NS(=O)(=O)c3c(F)cccc3F)c2)c(-c2ccnc(Nc3ccc(N4CCOCC4)nc3)n2)s1 [Example 47],> 1000 nM,< 100 nM,< 100 nM,> 1000 nM
"COc1ccc(Nc2nccc(-c3sc(C(C)C)nc3-c3cccc(NS(=O)(=O)c4ccccc4)c3)n2)cc1N1CCN(CCC#N)CC1 [Example 9, N-{3-[5-(2-{[3-[4-(2-Cyanoethyl)-1-piperazinyl]-4-(methyloxy)phenyl]amino}-4-pyrimidinyl)-2-(1-methylethyl)-1,3-thiazol-4-yl]phenyl}benzenesulfonamide]",100 to 1000 nM,< 100 nM,< 100 nM,< 100 nM
"CC(C)c1nc(-c2cccc(NS(=O)(=O)c3c(F)cccc3F)c2)c(-c2ccnc(Nc3ccc(N4CCOCC4)nc3)n2)s1 [Example 17, 2,6-Difluoro-N-{3-[2-(1-methylethyl)-5-(2-{[6-(4-morpholinyl)-3-pyridinyl]amino}-4-pyrimidinyl)-1,3-thiazol-4-yl]phenyl}benzenesulfonamide]",100 to 1000 nM,< 100 nM,< 100 nM,100 to 1000 nM
CC(=O)N1CCN(c2ccc(Nc3nccc(-c4sc(C(C)C)nc4-c4cccc(NS(=O)(=O)C5CCCCC5)c4)n3)cn2)CC1 [Example 39],> 1000 nM,100 to 1000 nM,100 to 1000 nM,100 to 1000 nM
Cc1nc(Cl)sc1S(=O)(=O)Nc1cccc(-c2nc(C(C)C)sc2-c2ccnc(Nc3ccc(N4CCOCC4)nc3)n2)c1 [Example 42],< 100 nM,< 100 nM,< 100 nM,> 1000 nM
CC(C)(C)c1nc(-c2ccc(F)c(NS(=O)(=O)c3c(F)cccc3F)c2)c(-c2ccnc(Nc3ccc(N4CCN(CCF)CC4)c(F)c3)n2)s1 [Example 99],> 1000 nM,< 100 nM,100 to 1000 nM,> 1000 nM

# Other lines, results leading:
IC50 [1],IC50 [2],IC50 [3],IC50 [4],SMILES
< 100 nM,< 100 nM,< 100 nM,> 1000 nM,CC(C)c1nc(-c2cccc(NS(=O)(=O)c3ccco3)c2)c(-c2ccnc(Nc3ccc(N4CCOCC4)nc3)n2)s1 [Example 53]
100 to 1000 nM,< 100 nM,100 to 1000 nM,< 100 nM,COc1cc(N2CCN(CCS(C)(=O)=O)CC2)c(C)cc1Nc1nccc(-c2sc(N3CCOCC3)nc2-c2cccc(NS(=O)(=O)c3c(F)cccc3F)c2)n1 [Example 128]
100 to 1000 nM,< 100 nM,< 100 nM,100 to 1000 nM,CC(C)c1nc(-c2cccc(NS(=O)(=O)c3cccnc3)c2)c(-c2ccnc(Nc3ccc(N4CCOCC4)nc3)n2)s1 [Example 52]
> 1000 nM,< 100 nM,100 to 1000 nM,100 to 1000 nM,CC(C)c1nc(-c2ccc(F)c(NS(=O)(=O)c3c(F)cccc3F)c2)c(-c2ccnc(Nc3ccc(N4CCN(CCF)CC4)c(F)c3)n2)s1 [Example 25]
100 to 1000 nM,< 100 nM,< 100 nM,100 to 1000 nM,O=S1(=O)Cc2ccc(Nc3nccc(-c4sc(N5CCOCC5)nc4-c4cccc(NS(=O)(=O)c5c(F)cccc5F)c4F)n3)cc2C1 [Example 155]
> 1000 nM,< 100 nM,< 100 nM,100 to 1000 nM,"CC(C)c1nc(-c2cccc(NS(=O)(=O)c3ccccc3)c2)c(-c2ccnc(Nc3ccc(N4CCOCC4)nc3)n2)s1 [Example 8, N-{3-[2-(1-Methylethyl)-5-(2-{[6-(4-morpholinyl)-3-pyridinyl]amino}-4-pyrimidinyl)-1,3-thiazol-4-yl]phenyl}benzenesulfonamide hydrochloride]"
> 1000 nM,100 to 1000 nM,100 to 1000 nM,100 to 1000 nM,CN(C)c1nc(-c2ccc(F)c(NS(=O)(=O)c3c(F)cccc3F)c2)c(-c2ccnc(Nc3ccc(N4CCN(S(C)(=O)=O)CC4)nc3)n2)s1 [Example 112]
< 100 nM,< 100 nM,< 100 nM,> 1000 nM,"CC(C)c1nc(-c2cccc(NS(=O)(=O)c3c(F)cccc3F)c2F)c(-c2ccnc(Nc3cnc(N4CCOCC4)c(F)c3)n2)s1 [Example 30, 2,6-Difluoro-N-{2-fluoro-3-[5-(2-{[5-fluoro-6-(4-morpholinyl)-3-pyridinyl]amino}-4-pyrimidinyl)-2-(1-methylethyl)-1,3-thiazol-4-yl]phenyl}benzenesulfonamide]"
> 1000 nM,< 100 nM,< 100 nM,> 1000 nM,"CC(C)c1nc(-c2ccnc(NS(=O)(=O)c3c(F)cccc3F)c2)c(-c2ccnc(Nc3ccc(N4CCOCC4)nc3)n2)s1 [Example 32, 2,6-Difluoro-N-{4-[2-(1-methylethyl)-5-(2-{[6-(4-morpholinyl}-3-pyridinyl]amino}-4-pyrimidinyl)-1,3-thiazol-4-yl]-2-pyridinyl}benzenesulfonamide]"
